In the assay the target is T1, Serine/threonine-protein kinase Chk1 (Homo sapiens, UniProt O14757).
T1 sequence (O14757 whole entry): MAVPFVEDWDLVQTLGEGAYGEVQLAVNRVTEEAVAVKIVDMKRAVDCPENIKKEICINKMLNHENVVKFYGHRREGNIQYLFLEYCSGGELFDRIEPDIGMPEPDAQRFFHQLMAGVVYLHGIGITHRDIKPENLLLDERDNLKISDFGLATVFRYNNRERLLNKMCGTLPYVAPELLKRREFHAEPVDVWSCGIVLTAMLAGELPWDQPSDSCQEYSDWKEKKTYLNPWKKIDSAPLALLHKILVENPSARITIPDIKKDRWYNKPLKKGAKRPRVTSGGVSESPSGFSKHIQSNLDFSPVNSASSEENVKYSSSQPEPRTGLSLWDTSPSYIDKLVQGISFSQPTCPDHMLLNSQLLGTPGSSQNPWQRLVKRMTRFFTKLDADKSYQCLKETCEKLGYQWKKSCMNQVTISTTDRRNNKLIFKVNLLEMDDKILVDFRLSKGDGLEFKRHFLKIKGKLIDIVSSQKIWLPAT
As to the kind of experiment: Kinase Inhibition Asssay: Reaction Buffer:Base Reaction buffer: 20 mM Hepes (pH 7.5), 10 mM MgCl2, 1 mM EGTA, 0.02% Brij35, 0.02 mg/ml BSA, 0.1 mM Na3VO4, 2 mM DTT, 1% DMSORequired cofactors are added individually to each kinase reactionReaction Procedure:(i) Prepare indicated substrate in freshly prepared Base Reaction Buffer(ii) Deliver any required cofactors to the substrate solution above(iii) Deliver indicated kinase into the substrate solution and gently mix(iv) Deliver compounds in DMSO into the kinase reaction mixture(v) Deliver 33P-ATP (specific activity 0.01 μCi/μl final) into the reaction mixture to initiate the reaction.(vi) Incubate kinase reaction for 120 minutes at room temperature(vii) Reactions are spotted onto P81 ion exchange paper (Whatman #3698-915)(viii) Wash filters extensively in 0.1% phosphoric acid.(ix) Dry filters and measure counts in scintillation counterKinase Information:CHK-1 Genbank Accession # AF016582Recombinant full length construct, N-terminal GST tagged, purified from insect cells.No special measures were taken to activate this kinase.Final concentration in assay=0.5 nMSubstrate: CHKtidePeptide sequence: [[…]]Final concentration in assay=20 μM.

With `COc1cc(CCNC[C@@H]2CCCNC2)c(Cl)cc1NC(=O)Nc1cnc(C#N)cn1`, the IC50 came to 0.1 nM. The figure for `COc1cc(CCNC[C@H]2CCCNC2)c(Cl)cc1NC(=O)Nc1cnc(C#N)cn1` is 0.06 nM.

In general, IC50 refers to the point on the concentration scale where inhibition reaches its midpoint.
